Laboratory results as given in PubChem BioAssay (NCI).
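Cells were grown in 96-well plates and exposed to each compound for 48 hours at five concentrations; endpoints were interpolated linearly between bracketing concentrations, or set to the highest concentration if not reached. Definition used: TGI = concentration required for complete inhibition of growth.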

Assays:
Experiment in all cases: growth of human tumour cells (NCI), 48 h
COLO 205 colon = system: COLO 205 colon
SF-295 CNS = system: SF-295 CNS
HT29 colon = system: HT29 colon
NCI/ADR-RES ovarian = system: NCI/ADR-RES ovarian
DU-145 prostate = system: DU-145 prostate
HL-60(TB) leukemia = system: HL-60(TB) leukemia
MDA-N = system: MDA-N
SNB-75 CNS = system: SNB-75 CNS
MCF7 breast = system: MCF7 breast
MDA-MB-435 = system: MDA-MB-435
NCI-H226 lung = system: NCI-H226 lung
SNB-19 CNS = system: SNB-19 CNS
SN12C renal = system: SN12C renal
U251 CNS = system: U251 CNS
SK-MEL-28 melanoma = system: SK-MEL-28 melanoma
HCC-2998 colon = system: HCC-2998 colon
LOX IMVI melanoma = system: LOX IMVI melanoma
HOP-62 NSCLC = system: HOP-62 NSCLC
KM12 colon = system: KM12 colon
HCT-116 colon = system: HCT-116 colon
OVCAR-5 ovarian = system: OVCAR-5 ovarian
K-562 leukemia = system: K-562 leukemia
A498 renal = system: A498 renal
SK-MEL-5 melanoma = system: SK-MEL-5 melanoma
SK-MEL-2 melanoma = system: SK-MEL-2 melanoma
OVCAR-4 ovarian = system: OVCAR-4 ovarian
NCI-H522 lung = system: NCI-H522 lung
OVCAR-8 ovarian = system: OVCAR-8 ovarian
HS 578T breast = system: HS 578T breast
RPMI-8226 leukemia = system: RPMI-8226 leukemia
786-0 renal = system: 786-0 renal
CAKI-1 renal = system: CAKI-1 renal
SF-539 CNS = system: SF-539 CNS
UACC-257 melanoma = system: UACC-257 melanoma
IGROV1 ovarian = system: IGROV1 ovarian
NCI-H23 lung = system: NCI-H23 lung
PC-3 prostate = system: PC-3 prostate
RXF 393 renal = system: RXF 393 renal
SF-268 CNS = system: SF-268 CNS
MDA-MB-231 breast = system: MDA-MB-231 breast
EKVX NSCLC = system: EKVX NSCLC
BT-549 breast = system: BT-549 breast
NCI-H460 lung = system: NCI-H460 lung
A549 NSCLC = system: A549 NSCLC
CCRF-CEM leukemia = system: CCRF-CEM leukemia
TK-10 renal = system: TK-10 renal
SW-620 colon = system: SW-620 colon
HOP-92 NSCLC = system: HOP-92 NSCLC
M14 melanoma = system: M14 melanoma
HCT-15 colon = system: HCT-15 colon
ACHN renal = system: ACHN renal
SR leukemia = system: SR leukemia
OVCAR-3 ovarian = system: OVCAR-3 ovarian
MOLT-4 leukemia = system: MOLT-4 leukemia
UO-31 renal = system: UO-31 renal
UACC-62 melanoma = system: UACC-62 melanoma
SK-OV-3 ovarian = system: SK-OV-3 ovarian
MALME-3M melanoma = system: MALME-3M melanoma

Question: Which TGI (COLO 205 colon) does the source give for COCCNC1CCC2(SCCS2)c2[nH]c3ccccc3c21 (stereo not drawn) here?
Answer: The TGI was 82.5 µM.

Question: And the TGI (SF-295 CNS)?
Answer: Its TGI is > 100 µM.

Question: What about the TGI (HT29 colon) of the same compound?
Answer: Its TGI is > 100 µM.

Question: And the TGI (NCI/ADR-RES ovarian)?
Answer: The TGI was > 100 µM.

Question: What about the TGI (DU-145 prostate) of the same compound?
Answer: The TGI was > 100 µM.

Question: What about the TGI (HL-60(TB) leukemia) of the same compound?
Answer: Its TGI is 45.8 µM.

Question: What about the TGI (MDA-N) of the same compound?
Answer: The TGI was 57.9 µM.

Question: And the TGI (SNB-75 CNS)?
Answer: The TGI was > 100 µM.

Question: And the TGI (MCF7 breast)?
Answer: The TGI was 39.3 µM.

Question: What about the TGI (MDA-MB-435) of the same compound?
Answer: Its TGI is 62.1 µM.

Question: What about the TGI (NCI-H226 lung) of the same compound?
Answer: Its TGI is > 100 µM.

Question: And the TGI (SNB-19 CNS)?
Answer: The TGI was > 100 µM.

Question: What about the TGI (SN12C renal) of the same compound?
Answer: Its TGI is 91.9 µM.

Question: What about the TGI (U251 CNS) of the same compound?
Answer: Its TGI is > 100 µM.

Question: And the TGI (SK-MEL-28 melanoma)?
Answer: The TGI was > 100 µM.

Question: What about the TGI (HCC-2998 colon) of the same compound?
Answer: Its TGI is > 100 µM.

Question: What about the TGI (LOX IMVI melanoma) of the same compound?
Answer: The TGI was 36 µM.

Question: And the TGI (HOP-62 NSCLC)?
Answer: Its TGI is > 100 µM.

Question: And the TGI (KM12 colon)?
Answer: The TGI was 40.5 µM.

Question: What about the TGI (HCT-116 colon) of the same compound?
Answer: Its TGI is > 100 µM.

Question: What about the TGI (OVCAR-5 ovarian) of the same compound?
Answer: The TGI was > 100 µM.

Question: What about the TGI (K-562 leukemia) of the same compound?
Answer: The TGI was > 100 µM.

Question: What about the TGI (A498 renal) of the same compound?
Answer: Its TGI is 86.1 µM.

Question: What about the TGI (SK-MEL-5 melanoma) of the same compound?
Answer: Its TGI is 57.4 µM.

Question: What about the TGI (SK-MEL-2 melanoma) of the same compound?
Answer: The TGI was > 100 µM.

Question: And the TGI (OVCAR-4 ovarian)?
Answer: Its TGI is > 100 µM.

Question: And the TGI (NCI-H522 lung)?
Answer: The TGI was > 100 µM.

Question: What about the TGI (OVCAR-8 ovarian) of the same compound?
Answer: The TGI was > 100 µM.

Question: And the TGI (HS 578T breast)?
Answer: Its TGI is > 100 µM.

Question: And the TGI (RPMI-8226 leukemia)?
Answer: The TGI was 41.4 µM.

Question: And the TGI (786-0 renal)?
Answer: The TGI was > 100 µM.

Question: And the TGI (CAKI-1 renal)?
Answer: Its TGI is > 100 µM.

Question: What about the TGI (SF-539 CNS) of the same compound?
Answer: The TGI was 50.7 µM.

Question: What about the TGI (UACC-257 melanoma) of the same compound?
Answer: The TGI was 39.5 µM.

Question: What about the TGI (IGROV1 ovarian) of the same compound?
Answer: The TGI was > 100 µM.

Question: And the TGI (NCI-H23 lung)?
Answer: Its TGI is > 100 µM.

Question: What about the TGI (PC-3 prostate) of the same compound?
Answer: The TGI was > 100 µM.

Question: And the TGI (RXF 393 renal)?
Answer: Its TGI is 40.4 µM.

Question: What about the TGI (SF-268 CNS) of the same compound?
Answer: Its TGI is > 100 µM.

Question: What about the TGI (MDA-MB-231 breast) of the same compound?
Answer: Its TGI is 54.1 µM.

Question: And the TGI (EKVX NSCLC)?
Answer: Its TGI is > 100 µM.

Question: What about the TGI (BT-549 breast) of the same compound?
Answer: The TGI was 38 µM.

Question: And the TGI (NCI-H460 lung)?
Answer: Its TGI is > 100 µM.

Question: And the TGI (A549 NSCLC)?
Answer: Its TGI is > 100 µM.

Question: And the TGI (CCRF-CEM leukemia)?
Answer: The TGI was 88.3 µM.

Question: And the TGI (TK-10 renal)?
Answer: The TGI was 44.6 µM.

Question: And the TGI (SW-620 colon)?
Answer: The TGI was > 100 µM.

Question: And the TGI (HOP-92 NSCLC)?
Answer: The TGI was 50.3 µM.

Question: What about the TGI (M14 melanoma) of the same compound?
Answer: Its TGI is 30.4 µM.

Question: And the TGI (HCT-15 colon)?
Answer: Its TGI is > 100 µM.

Question: And the TGI (ACHN renal)?
Answer: The TGI was > 100 µM.

Question: And the TGI (SR leukemia)?
Answer: Its TGI is 69.9 µM.

Question: And the TGI (OVCAR-3 ovarian)?
Answer: Its TGI is 82.1 µM.

Question: What about the TGI (MOLT-4 leukemia) of the same compound?
Answer: The TGI was > 100 µM.

Question: What does the source list for Cc1cc(O)c(C(C)C)cc1N=Cc1ccccc1O?
Answer: TGI (COLO 205 colon): 42.3 µM; TGI (SF-295 CNS): 26.6 µM; TGI (HT29 colon): > 74 µM; TGI (NCI/ADR-RES ovarian): > 67 µM; TGI (DU-145 prostate): 17.4 µM; TGI (HL-60(TB) leukemia): 1.89 µM; TGI (MDA-N): 17 µM; TGI (MCF7 breast): 78.9 µM; TGI (MDA-MB-435): 4.37 µM; TGI (NCI-H226 lung): 20.4 µM; TGI (SNB-19 CNS): 36.5 µM; TGI (SN12C renal): 12.2 µM; TGI (U251 CNS): 14.6 µM; TGI (SK-MEL-28 melanoma): 31.4 µM; TGI (UO-31 renal): 33.7 µM; TGI (HCC-2998 colon): 14.7 µM; TGI (LOX IMVI melanoma): > 84.3 µM; TGI (HOP-62 NSCLC): 26.1 µM; TGI (UACC-62 melanoma): 21.7 µM; TGI (KM12 colon): 14 µM; TGI (HCT-116 colon): 13.5 µM; TGI (OVCAR-5 ovarian): 41.2 µM; TGI (K-562 leukemia): > 22.3 µM; TGI (A498 renal): 66.2 µM; TGI (SK-MEL-5 melanoma): 18.8 µM; TGI (SK-MEL-2 melanoma): 25.4 µM; TGI (OVCAR-4 ovarian): 9.66 µM; TGI (NCI-H522 lung): 17.2 µM; TGI (OVCAR-8 ovarian): > 29.6 µM; TGI (HS 578T breast): > 46.4 µM; TGI (786-0 renal): 26.3 µM; TGI (CAKI-1 renal): 25.4 µM; TGI (SF-539 CNS): 49.3 µM; TGI (UACC-257 melanoma): 24.4 µM; TGI (IGROV1 ovarian): 22.4 µM; TGI (NCI-H23 lung): 37.9 µM; TGI (PC-3 prostate): 22.4 µM; TGI (RXF 393 renal): 2.64 µM; TGI (SK-OV-3 ovarian): 28.8 µM; TGI (SF-268 CNS): 21.4 µM; TGI (MDA-MB-231 breast): 3.59 µM; TGI (EKVX NSCLC): 26.8 µM; TGI (BT-549 breast): 22 µM; TGI (NCI-H460 lung): 24.6 µM; TGI (A549 NSCLC): 43 µM; TGI (CCRF-CEM leukemia): 0.0897 µM; TGI (MALME-3M melanoma): 28.4 µM; TGI (TK-10 renal): 26.9 µM; TGI (SW-620 colon): > 20.4 µM; TGI (HOP-92 NSCLC): 1.82 µM; TGI (M14 melanoma): 31.4 µM; TGI (HCT-15 colon): > 59.5 µM; TGI (ACHN renal): 23.9 µM; TGI (OVCAR-3 ovarian): 9.7 µM
